Measured values published in patent US8377944B2, “Thienopyrimidine derivatives” (ASKA Pharmaceutical Co., Ltd., priority 2005, dated 2013).

Test system: model of urethral obstruction with the guinea pigs
Experiment: Dysuria pathological model (urethral obstruction), cystometry
Type: in vivo, guinea pig
Settings: for Frequency of non-voiding contraction, pre-administration / Residual urine volume, pre-administration: baseline before administration; for Frequency of non-voiding contraction, pre-administration / Residual urine volume, pre-administration / Frequency of non-voiding contraction, post-administration / Residual urine volume, post-administration: mean; for Frequency of non-voiding contraction, post-administration / Residual urine volume, post-administration: up to 30 min after administration; for Frequency of non-voiding contraction, quantitative change / Residual urine volume, quantitative change: post minus pre
Method: (3) Investigation of PDE9 Inhibitory Activity on Dysuria Pathological Model
Three to four weeks old female Hartley strain guinea pigs (Nippon SLC) were laparotomized under anesthesia with pentobarbital (30 mg/kg i.p.), and a polyethylene tube of 1.4 mm in width and 2.0 mm in inner diameter was placed in each guinea pig's urethra to the distal side by 1-2 mm from the bladder neck. After closing the incision, the guinea pigs were reared for at least 3 weeks to provide a model of urethral obstruction with the guinea pigs in which rise in intravesical pressure not accompanied by voiding (non-voiding contraction) and residual urine were induced.
The model was catheterized under anesthesia with urethane (1 g/kg i.p.) at the apex of urinary bladder and right jugular vein for cystometrography and intravenous administration, respectively. The other end of the bladder catheter was connected to a pressure transducer and infusion pump through three way stopcock. By means of the infusion pump, physiological saline was continuously infused into the bladder at a rate of 0.4 mL/min to induce micturition reflex. Immediately after the micturition reflex was induced, the physiological saline infusion into the bladder was stopped. The intravesical pressure at the time the micturition occurred was measured with the pressure transducer and the cystometrogram was recorded with pen recorder. The urine voided was collected with a disposable type weighing dish to measure its weight. Further the physiological saline remained in the bladder was sucked with syringe through the bladder catheter to measure the residual urine volume. Multiple operation cycles (normally 4 times) of suspending physiological saline infusion when micturition reflex was induced and resuming the infusion after about 1 minute to induce next micturition reflex, were repeated to stabilize the voiding response.
Also the frequency of non-voiding contraction occurred during the operations was measured. The respective mean values of frequency of non-voiding contraction and residual urine volume in the experiment using several guinea pigs are shown in the following Table B.

Structure (SMILES)	Frequency of non-voiding contraction, pre-administration (1 mg/kg i.v.) [count/min]	Residual urine volume, pre-administration (1 mg/kg i.v.) [mL]	Frequency of non-voiding contraction, post-administration (1 mg/kg i.v.) [count/min]	Frequency of non-voiding contraction, pre-administration (10 mg/kg i.v.) [count/min]	Residual urine volume, pre-administration (10 mg/kg i.v.) [mL]	Frequency of non-voiding contraction, post-administration (10 mg/kg i.v.) [count/min]	Frequency of non-voiding contraction, pre-administration (0.3 mg/kg i.v.) [count/min]	Residual urine volume, pre-administration (0.3 mg/kg i.v.) [mL]	Frequency of non-voiding contraction, post-administration (0.3 mg/kg i.v.) [count/min]	Frequency of non-voiding contraction, pre-administration (3 mg/kg i.v.) [count/min]	Residual urine volume, pre-administration (3 mg/kg i.v.) [mL]	Frequency of non-voiding contraction, post-administration (3 mg/kg i.v.) [count/min]	Residual urine volume, post-administration (10 mg/kg i.v.) [mL]	Residual urine volume, post-administration (0.3 mg/kg i.v.) [mL]	Residual urine volume, post-administration (3 mg/kg i.v.) [mL]	further results
Cc1c(C(=O)O)sc2nc(Cc3cccs3)[nH]c(=O)c12 [Example 2, 5-Methyl-4-oxo-2-(thiophen-2-ylmethyl)-3,4-dihydrothieno[2,3-d]pyrimidine-6-carboxylic acid]	0.91	1.27	0.47	0.91	1.27	0.78										
Cc1c(C(=O)O)sc2nc(Cc3cccc(Cl)c3)[nH]c(=O)c12 [Example 10, 2-(3-Chlorobenzyl)-5-methyl-4-oxo-3,4-dihydrothieno-[2,3-d]pyrimidine-6-carboxylic acid]				1.16		0.60	1.16	0.95	0.80	1.16	0.95	0.49	0.95			
Cc1c(C(=O)O)sc2nc(Cc3ccc(Cl)c(Cl)c3)[nH]c(=O)c12 [Example 36, 2-(3,4-Dichlorobenzyl)-5-methyl-4-oxo-3,4-dihydrothieno-[2,3-d]pyrimidine-6-carboxylic acid]	0.96	0.82	0.79	1.11	1.06	0.64				1.16	1.33	0.77	0.64			Residual urine volume, post-administration (1 mg/kg i.v.): 0.86 mL
O=C(O)c1cc2c(=O)[nH]c(Cc3cccc(Cl)c3)nc2s1 [Example 104, 2-(3-Chlorobenzyl)-4-oxo-3,4-dihydrothieno[2,3-d]pyrimidine-6-carboxylic acid]				1.57	1.68	0.83	1.08	1.54	0.55	1.44	1.37	0.78	0.62	1.02	0.88	Frequency of non-voiding contraction, quantitative change (0.3 mg/kg i.v.): −0.53 count/min; Residual urine volume, quantitative change (0.3 mg/kg i.v.): -0.52 mL; Frequency of non-voiding contraction, quantitative change (3 mg/kg i.v.): −0.66 count/min; Residual urine volume, quantitative change (3 mg/kg i.v.): -0.49 mL; Frequency of non-voiding contraction, quantitative change (10 mg/kg i.v.): −0.74 count/min; Residual urine volume, quantitative change (10 mg/kg i.v.): -1.06 mL
Cc1c(C(=O)O)sc2nc(Cc3cccc(Cl)c3)[nH]c(=S)c12 [Example 112, 2-(3-Chlorobenzyl)-5-methyl-4-thioxo-3,4-dihydrothieno-[2,3-d]pyrimidine-6-carboxylic acid]				1.12	1.02	0.59	1.12		1.02	1.12	1.02	0.76	0.48	0.91	0.27	
